Results taken from US11534377B2, “Hair growth agent” (KOBAYASHI PHARMACEUTICAL CO., LTD., priority 2016, dated 2022).

Key:
hair papilla cells = assay: Hair papilla cell proliferation test by two-dimensional culture (Example 5); type: cell-based, C57BL/6N mouse; conditions: final concentration 0.1 wt %, cultured for 3 days; FIG. 18
Source text: Hair papilla cells transmit new hair growth signals to hair matrix cells via signaling substances to activate hair matrix cells, thereby controlling processes of new hair growth and hair elongation. Accordingly, the hair shaft growth promoting activity and the like of test substances can be evaluated from a proliferation rate of hair papilla cells. In this Example, the skin of the whisker region was taken from a C57BL/6N mouse and hair papillae were harvested from isolated whisker follicles under a stereo microscope. Six hair papillae were fixed to the bottom surface of a 60 mm-plastic petri dish (from Sumitomo Bakelite Co., Ltd.), and the primary culture was performed at 37° C. in the presence of 5% CO2 by using a hair papilla cell culture medium in which 2% FCS (fetal calf serum), 0.6% ITT (insulin-transferrin-triiodothyronine mixture), 1% BPE (bovine pituitary extract), and 0.6% Cyp (cyproterone solution) were added to a PCGM base medium. Afterwards, the medium was replaced every 2 to 3 days and subculturing was repeated about every two weeks. In this experiment, hair papilla cells at passage 3 or less were used. […] The number of cells after culturing for 3 days was counted by using a hemocytometer, and proliferation rates in test solution A and the test solution B were calculated relative to 100% for a proliferation rate in the negative control as 100%.

[1] = system: hair papilla cell spheroids; assay: Hair papilla cell proliferation test by three-dimensional culture (Example 6); type: cell-based, C57BL/6N mouse; conditions: final concentrations 0.05 wt %, 0.1 wt %, and 1 wt %, cultured for 3 days; FIG. 19
Procedure: In this Example, hair papilla cells prepared in a similar manner to Example 5 were seeded in a 96-well U-bottom microplate for cell culture (from Sumitomo Bakelite Co., Ltd.) at 6,000 cells/well and centrifuged with a plate centrifuge at room temperature and at a rotating speed of 1,000 rpm for 1 minute to yield three-dimensional hair papilla cell spheroids. The spheroids were cultured for 3 days by using each of test solutions A1 to A3 that were hair papilla cell culture media to which D-chiro-inositol dissolved in PBS was added at a final concentration of 0.05 wt %, 0.1 wt %, or 1 wt %; test solutions B1 to B3 that were hair papilla cell culture media to which myo-inositol dissolved in PBS was added at a final concentration of 0.05 wt %, 0.1 wt %, or 1 wt %; and a negative control that was a hair papilla cell culture medium to which PBS alone was added. The spheroids after culturing for 3 days were imaged by using a VHX2000 digital microscope (Keyence Corporation), and the area of the spheroids was calculated by using a digital microscope analysis tool. By calculating a spheroid area increase rate in the test solutions A1 to A3 and B1 to B3, relative to an area increase rate in the negative control as 100%, the proliferation of hair papilla cells in conditions further close to in vivo condition was quantified.

[2] = system: crab-eating macaque (Macaca fascicularis); assay: New hair growth test in monkey (Example 4); type: in vivo; conditions: 1 wt % in 50% ethanol, 8 weeks
Source text: A crab-eating macaque (Macaca fascicularis) is a monkey (class: Mammalia, order: Primates, family: Cercopithecidae, genus: Macaca) that has many similarities to humans, such as the morphology of the temporomandibular joint, and is frequently employed as a laboratory animal for morphological studies and medication studies due to its easy breeding and rearing. The crab-eating macaque is known for the replacement of the body hair in a six-month cycle in a year. Among aged female monkeys that had babies repeatedly and aged male monkeys of low social status, individuals with observed symptoms of hair thinning or sparse hair emerge with low frequency. […] In this Example, to an aged crab-eating macaque (19 years of age, male) having sparse body hair of the head, a test solution A in which D-chiro-inositol (from Wako Pure Chemical Industries Ltd.) was dissolved in 50% ethanol at a concentration of 1 wt % and a test solution B in which myo-inositol was dissolved in 50% ethanol at a concentration of 1 wt % were applied every day to about 4 cm^2-sparse hair regions (2 cm×2 cm) in both left and right sides across the median line of the head of the macaque. The application (once/day, 150 μl) was performed over 8 weeks, and 50% ethanol was applied as a negative control. At the end of 8 weeks, hair shafts in the applied regions were cut with hair clippers while leaving 2 to 3 mm from pores toward the outside of the body, and the total number of hair protruded from the pores in the applied regions was counted. A new hair growth rate was calculated as an increase rate in the number of hair at the end of 8 weeks, relative to the number of hair protruded from pores in the same regions before the application at the start of the test as 100%.

C3H/He mice = assay: New hair growth promoting activity in telogen-phase mice after hair removal (Example 3); type: in vivo; conditions: 5 wt % in 50% ethanol, once/day 100 μl
Source text: The hair follicle that produces a hair shaft is the only organ known to repeat growth and regression over the entire life. Such regular growth and regression are divided into the anagen phase, the catagen phase, and the telogen phase of a hair cycle. The body hair of the back of C3H/He mice is bound to be in the telogen phase 45 to 95 days after birth, and thus an extremely long telogen phase-bound period is observed compared with common mice, such as C57BL/6N mice, whose hair cycle of the body hair of the back lasts about 21 days in total for the anagen phase, the catagen phase, and the telogen phase. […] Therefore, by using C3H/He mice at 45 to 90 days after birth, new hair growth promoting activity can be evaluated. […]
The application was performed for two groups (test solution-applied group and negative control group (50% ethanol-applied group)), where each group consisted of five mice. On the basis of new hair growth score criteria (Table 15) according to appearance changes in a portion of the applied region that leaves the telogen phase and enters a regeneration phase, the degree of new hair growth in the applied region was quantified (range of 1 to 10 in which new hair growth scores concerning two items are summed) over time on day 0, 4, 5, 6, 7, 10, 11, 12, 13, 14, 17, 18, 19, 20, and 21 after hair removal. […]

SMILES: OC1C(O)C(O)C(O)C(O)C1O [D-chiro-inositol]
- Hair papilla cell proliferation rate vs negative control (hair papilla cells): increased significantly
- Hair papilla cell spheroid area vs negative control [1]: increased significantly
- Hair shaft thickness in applied region vs test solution B and negative control ([2]; data not shown): remarkably thicker
- New hair growth rate ([2]; once/day 150 μl, sparse hair region of head, number of hair before application = 100%): 175.9%
- Average timing of new hair growth (new hair growth score reached 1 or more), number of days after hair removal (C3H/He mice; FIG. 17, negative control day 9): 4 days
- New hair growth score vs negative control group (C3H/He mice; day 21 after hair removal, FIG. 16, P<0.05): significantly higher
